Measurements as given in patent publication US9763915B2, “Adjuvants in anti-cancer chemotherapy” (PharmOxaco SáRL, priority 2013, dated 2017).
Values joined by “and” are separate entries in the source; they are usually repeats but may differ in a detail not shown here. Equal values may be shown once.

Tests used:
[1] = test system: MCF-7 breast cancer cell line; experiment: Annexin V apoptosis assay, poorly proliferating MCF-7 breast cancer cells; conditions: MCF-7, 48 hours, vehicle baseline 13-18%
Excerpt: (§2) The same experimental set-up was also utilized to test the synergistic capacity of trioxane T59 with imatinib.
(§3) The test read-out was the Annexin V apoptosis assay kit from Becton-Dickinson, which detects the presence of the Annexin V protein on the surface of cells undergoing apoptosis and positivity toward propidium iodide for dead cells.

[2] = test system: MDA-468 breast cancer cell line; experiment: Annexin V apoptosis assay, fast proliferating MDA-468 breast cancer cells; conditions: MDA-468, 48 hours, vehicle baseline 13-18%
Excerpt: as §2, §3

rats [3] = experiment: Further testing in a group of rats (mortality); conditions: 40 mg/kg/day
CD® rats = experiment: Two-week toxicity study in CD rats; format: in vivo
Method: As a bellwether, the toxicity of trioxane T7 has been evaluated and compared with that of artemether in CD® rats following two weeks of oral administration (gavage) and intramuscular injection, respectively. Trioxane T7 was administered at doses of 0, 15, 30, and 60 mg/kg/day in Lipomul® emulsion, while artemether was dosed at 0, 10, 20, and 40 mg/kg/day.

rats [4] = conditions: Brewer et al. 1994; cited from earlier work
dogs = conditions: Brewer et al. 1994; cited from earlier work
[5] = test system: human Burkitt's lymphoma cell line (Raji); experiment: Annexin V apoptosis assay, Burkitt's lymphoma cell line Raji; format: cell-based; conditions: 48 hours, 25 μM alone
Method: (§1) Next the cells were cultivated in the same way, but in the combined presence of dasatinib (25 μM) and the individual trioxanes T16, T45, and T7 in concentrations of 1.0 and 10 μM (see Tables below). As mentioned above, the Annexin V apoptosis assay was used to detect the Annexin V protein on cells undergoing apoptosis. Dead cells (post-apoptopic) were determined by positivity toward propidium iodide. The percentages of apoptopic, post-apoptopic cells, and their total are shown for each test. […] Synergy is noted as moderate (*), high (**), or exceptionally high (***).
Human Burkitt's Lymphoma (Raji)

[6] = test system: human follicular lymphoma cell line (DoHH2); experiment: Annexin V apoptosis assay, follicular lymphoma cell line DoHH2; format: cell-based; conditions: DoHH2, 48 hours, 25 μM alone
Method: as §1
Human Follicular Lymphoma (DoHH2)

SMILES: Cc1ccc(NC(=O)c2ccc(CN3CCN(C)CC3)cc2)cc1Nc1nccc(-c2cccnc2)n1 [Imatinib, imatinib]
- percentage of dead cells (dead+apoptotic) ([1]; 10 μM alone): 14.05% and 14.15%
- percentage of dead cells (dead+apoptotic) ([2]; 10 μM alone): 13.60% and 13.16%

SMILES: CO[C@H]1O[C@@H]2O[C@@]3(C)CC[C@H]4[C@H](C)CC[C@@H]([C@H]1C)[C@@]24OO3 [artemether]
- mortality (rats [3]): killed most of the rats
- toxic effects (CD® rats; two weeks intramuscular injection, 10, 20, 40 mg/kg/day): CNS excitability, neuronal chromatolysis, and gliosis in the brain stem
- toxic effects at mid-dose (CD® rats; two weeks intramuscular injection, mid-dose (of 10, 20, 40 mg/kg/day)): neurotoxic manifestations were observed, including hematoxicity and hepatotoxicity
- reported toxicity (rats [4]): neurotoxicity
- reported toxicity (dogs): neurotoxicity

SMILES: Cc1nc(Nc2ncc(C(=O)Nc3c(C)cccc3Cl)s2)cc(N2CCN(CCO)CC2)n1 [Dasatinib, dasatinib]
- Apoptopic Cells, in % [5]: 7.9%
- Post-apoptopic Cells, in % [5]: 15.18%
- Total Dead Cells, in % ([5]; vehicle baseline 13-18%): 23.15%
- Apoptopic Cells, in % [6]: 4.58%
- Post-apoptopic Cells, in % [6]: 11.76%
- Total Dead Cells, in % ([6]; vehicle baseline 13-18%): 16.34%

SMILES: Oc1ccc(C=Cc2cc(O)cc(O)c2)cc1 [Resveratrol, resveratrol]
- percentage of dead cells (dead+apoptotic) ([1]; 1 μM alone): 16.05%
- percentage of dead cells (dead+apoptotic) ([2]; 1 μM alone): 11.30%
